Assay results: a melting point compilation (Tetko et al.; mined from patent text by program, amines drawn as free bases though some values may be those of a salt)

Row | SMILES | melting point
1 | Fc1ccc(NC(=S)Nc2ncccc2OCc2c(F)cccc2Cl)cc1 | 146 to 148 °C
2 | O=C1C(=O)c2ccccc2C2=C1SCC1(CCN(C(=O)c3cccnc3)CC1)O2 | 218 to 220 °C
3 | CC(=O)OCC1CCn2c(c(C3=C(c4cn(C)c5ccccc45)C(=O)OC3=O)c3ccccc32)C1 (stereo unspecified) | 174 to 178 °C
4 | CS(=O)(=O)N(Cc1cccnc1)c1ccc(Cl)cc1 | 138 to 140 °C
5 | COc1ccc(-n2c(CC(=O)O)c(C(=O)O)c3cc(Oc4ccc(OC(C)C)cc4)ccc32)cc1 | 226 °C
6 | CC1=C(C(=O)c2ccc(C#N)cc2)C(=O)C2C=CC=CC2C1=O (stereo unspecified) | 185 to 186 °C
7 | CCc1cc(CC)c2sc3ccccc3c(=O)c2c1 | 60 °C
8 | COc1ccc2c(=O)c(CO)cn(C)c2c1 | 164 to 166 °C
9 | COC(=O)c1ccc(C(=O)NNC(=O)c2ccc(C(=O)OC)cc2)cc1 | 287 to 290 °C
10 | CC(C)CCCC(C)CCOc1cc(CCl)c(OCCC(C)CCCC(C)C)cc1CCl (stereo unspecified) | 55 °C
11 | COC(=O)CCc1cnoc1-c1cc(Cl)c(Cl)s1 | 49 to 50 °C
12 | N#CNc1nnc(-c2ccccc2Nc2cccc(C(F)(F)F)c2)o1 | > 230 °C
13 | CSCOc1ccc2c(c1)CCC1C2CCC2(C)C(=O)CCC12 (stereo unspecified) | 65 °C
14 | CN1CCCC1CCNc1nccc(Oc2ccc(NC(=O)c3cc(F)cc(N4CCOCC4)c3)c3ccccc23)n1 (stereo unspecified) | 100 to 101 °C
15 | CCOC(=O)NC(=NCCCc1c[nH]cn1)NCCSCc1ccccn1 | 60 to 61 °C
16 | COC(=O)CCCn1sc(Cl)cc1=O | 54 to 56 °C
17 | CCOC(=O)c1cnc(Cl)c(N)c1NC | 50 to 52 °C
18 | COc1ccc(C(Cl)C(C)(C)[N+](=O)[O-])cc1OC (stereo unspecified) | 109 to 110 °C
19 | O=C(O)c1cnn2c1NCC=C2c1cccc(C(F)(F)F)c1 | 175 to 177 °C
20 | CCOC(=O)C(C)n1ncc2ccc([N+](=O)[O-])cc21 (stereo unspecified) | 99.7 to 100 °C
21 | O=C(NCc1cccnc1)c1ccc2n1Cc1ccccc1N(C(=O)c1ccc(-c3ccccc3CN3CCCC3)cc1)C2 | 210 to 212 °C
22 | CC(=O)C(=[N+]=[N-])C(=O)CCc1ccc(S(=O)(=O)Cl)cc1 | 58 to 59.5 °C
23 | COc1ccc(NCCNC(=O)c2ccc(OCC=C(C)CCC=C(C)C)cc2)nc1 | 70.8 to 71.7 °C
24 | CCNC(=O)Nc1nc2cc(-c3cccnc3)cc(-c3ccc(C)cn3)c2s1 | 231 °C
25 | O=C(c1c(F)cccc1F)N1CNCN(c2ccc(Cl)cc2)C1=O | 167 to 168 °C
26 | COc1ccc(C2Sc3cccc4cccc(c34)NC(=O)C2O)cc1 (stereo unspecified) | 218 to 219 °C
27 | Brc1ccc2c(Sc3ccccc3)c[nH]c2c1 | 145 to 148 °C

Row | SMILES | melting point
28 | COc1ccc(S(=O)(=O)N2C(=O)[C@@](c3ccccc3OC)(N3C[C@H](OC(=O)N(C)C)C[C@H]3C(=O)N(C)C)c3cc(Cl)ccc32)c(OC)c1 | 138 to 140 °C
29 | CC(C)c1ccc(-n2nc(C(F)(F)F)cc2-c2ccc(S(C)(=O)=O)cc2)cc1 | 144 to 146 °C
30 | O=C(OCN1C(=O)c2ccccc2C1=O)c1ccccc1N=Nc1ccc(O)c(O)n1 | 196 to 201 °C
31 | CCCCCCCN1CCCc2cccc(O)c21 | 33 to 34 °C
32 | O=C1CCCN1c1cccc(-c2ccc(CC34CCCN3C(=O)N(c3cc(Cl)cc(Cl)c3)C4=O)cc2)c1 (stereo unspecified) | 86.5 °C
33 | Cc1cc(C)cc(CN(C)C2CCCn3c2c(-c2ccccc2)c2cc(C)c(C)cc2c3=O)c1 (stereo unspecified) | 144 to 145 °C
34 | Nc1cc(OCc2ccccc2)ccc1C=C(Br)Br | 93 to 94 °C
35 | COC(=O)Cn1c(Cc2ccccc2)ccc(NC(=O)CCCc2ccccc2)c1=O | 93 to 95 °C
36 | CSc1c(O[C@H]2CC[C@@H](N(C)C)CC2)ccc2[nH]ncc12 | 139 to 140 °C
37 | CC1(C)CC(=O)N(C(=O)Nc2ccccc2)CC(C)(C)N1O | 112 to 114 °C
38 | OCC(O)CNc1nc(-c2ccc(Cl)c(Cl)c2)nc2ccccc12 (stereo unspecified) | 162 to 164 °C
39 | CCCCC1(CCCC)NC(=O)c2ccccc2N1C | 77 to 78 °C
40 | O=C(O)c1nc(-c2ccc(Cl)cc2Cl)[nH]c1C(=O)O | 238 °C
41 | CCNC(=O)C(C)n1cc(C)c(-c2ccccc2)n1 (stereo unspecified) | 78 to 79 °C
42 | O=C(/C=C/c1ccccc1)Nc1cccc(F)c1 | 110 °C
43 | Nc1nc2c(ncn2COCCO)c(=S)[nH]1 | 251 to 254 °C
44 | C[C@@H]1O[C@](C#CC2CC2)(C(F)(F)F)c2cc(F)ccc2NC1=O (relative stereo) | 184 to 185 °C
45 | COc1ncncc1[N+](=O)[O-] | 193 to 195 °C
46 | COc1cc(N(C)C(=O)CN2CCN(C)CC2)ccc1N | 115 to 118 °C
47 | CC(C)CN1C(=O)C(NC(=O)c2cc3ccccc3[nH]2)N=C(N2CCCCCC2)c2ccccc21 (single isomer, unassigned; (-)) | 240 to 241 °C
48 | O=C(CCl)Nc1ccc2c(c1NC(=O)c1cccc(F)c1)C(=O)c1ccccc1C2=O | 197 to 198 °C
49 | O=C(c1ccc(F)cc1)C1CCN(CCN(C(=O)c2ccc([N+](=O)[O-])cc2)c2ccccc2)CC1 | 178 to 180 °C
50 | CN1CCN(c2ccc(-c3cnc4c(c3)N(Cc3cc(Cl)ccc3C(F)(F)F)CCN4)cn2)CC1 | 226 to 227 °C
51 | CC(O)c1ccc(CCNS(=O)(=O)c2ccccc2)cc1 (stereo unspecified) | 98 to 100 °C
52 | C1=C(c2cccc3[nH]ccc23)CNCC1 | 156 °C
53 | CCOC(=O)CC1CCc2c(sc3c(Cl)cccc23)C1 (stereo unspecified) | 51 to 53 °C
54 | COC(=O)C#CC(=O)c1ccccc1C | 43 to 45 °C

Further lines, results first:

Row | melting point | SMILES
55 | 280 °C | O=C(Nc1cccc(S(=O)(=O)N2CCCC2)c1)c1cnn2c(C(F)(F)F)cc(-c3ccc(Cl)c(Cl)c3)nc12
56 | 88 to 91 °C | CCCN(CCC)C1CNc2c(cc(Br)cc2[N+](=O)[O-])C1 (stereo unspecified)
57 | 200 to 205 °C | N=C(N)Nc1nc(CCCCNc2ncc(Cc3ccc(Cl)cc3)c(=O)[nH]2)cs1
58 | 83 °C | Clc1ncnc2ccccc12
59 | 156 to 158 °C | Nc1ccc(CCN2CCN(c3ccc(N)cc3)CC2)cc1
60 | 50 to 52 °C | CCOc1ccc2c(c1)CC2C#N (stereo unspecified)
61 | 55 to 57 °C | CC(C)(C)OC(=O)C1CCN(C(=O)OCc2ccccc2)N1 (stereo unspecified)
62 | 114 to 115 °C | CCCCc1nc2cccc(C=O)c2n1Cc1ccccc1Cl
63 | 168 to 170 °C | Cc1ccccc1Cn1cc(-c2cn(C3CC(O)C(CO)O3)c(=O)[nH]c2=O)nn1 (stereo unspecified)
64 | 60 to 62 °C | CCCCCCCCCCC/C=C\c1ccc(C=CC(=O)OC)cc1
65 | 133 to 138 °C | CCOC1CN(CC=CC(=O)Nc2cc3c(Nc4cccc(Br)c4)ncnc3cc2OC)CC(OCC)O1 (stereo unspecified)
66 | 160 to 163 °C | NC1=C(C(=O)c2ccc(Br)s2)C2=C(CCCC2)S1=O (stereo unspecified)
67 | 134 to 136 °C | CC(C)/C=C1\NC(=O)CC1=O
68 | 184 to 187 °C | O=C(/C=C/c1ccc2c(c1)OCCO2)CC(=O)/C=C/c1ccc2c(c1)OCCO2
69 | 152 to 153 °C | COc1ccc(OC)c2c1C[C@](C)(O)CC21SCCS1
70 | 96 to 97 °C | CCOC(Nc1ccccc1)(OCC)C1(F)C=CN=C(C(=O)c2ccc(Cl)cc2)C1 (stereo unspecified)
71 | 131 to 134 °C | CC(C)(C)C(=O)Oc1ccc(-c2nnn(Cc3ccccc3)n2)cc1
72 | 208 to 209 °C | O=Cc1cn(-c2ccccc2)nc1-c1ccc([N+](=O)[O-])o1
73 | 103 to 105 °C | CCCCn1cc(S(C)=O)c(=O)c2ccccc21 (stereo unspecified)
74 | 230 to 232 °C | CS(=O)c1cc(=O)c2occc2s1 (stereo unspecified)
75 | 144 to 146 °C | C#CCNC(=O)Oc1cc(-n2c(=O)cc(C(F)(F)F)n(C)c2=O)c(F)cc1Cl
76 | 188 to 189 °C | CCCC1N=C2C(=C(C)C(Cl)=NC2(N)CCOCCNC(=O)c2ccccc2)N1 (stereo unspecified)
77 | 300 °C | c1ccc(-c2ncc(-c3cnc(-c4ccncc4)[nH]3)cn2)cc1
78 | 158 to 162 °C | COc1ccc(C(C#N)Cc2c(Cl)cncc2Cl)c2c1OC(C)(C)C2 (stereo unspecified)

Row | melting point | SMILES
79 | 152 to 154 °C | CCOC(=O)C(=CNc1ccc(CO)cc1I)C(=O)OCC
80 | 210 to 213 °C | CCNCC1CN(c2c(F)cc3c(=O)c(C(=O)O)cn(C4CC4)c3c2F)CCO1 (stereo unspecified)
81 | 108 to 110 °C | CCN1CCCOc2cc(Nc3ncc(Cl)c(N[C@@H]4CCCC[C@H]4NS(C)(=O)=O)n3)ccc21
82 | 128 to 131 °C | CSc1noc(-c2ccc(OCCOc3ccccc3)cc2)c1C#N
83 | 178 to 180 °C | Cc1ccc(-c2cccc(/C=C/C(=O)Nc3ccc(CCl)cc3)c2)cc1
84 | 85 to 88 °C | COc1ccc(C(O)=C(C#N)C(=O)C(C)(C)C)c([N+](=O)[O-])c1
85 | 87 to 88 °C | COc1cccc2c1OCN(CCc1ccc(Cl)cc1)C2
86 | 136 to 138 °C | C=CCn1nnc2cc(F)c(-n3c(=O)cc(C(F)(F)F)n(C)c3=O)cc21
87 | 138 to 140 °C | COc1cc(N2C(=O)N(C)CC2O)c(F)cc1Cl (stereo unspecified)
88 | 225 to 228 °C | CCn1c2ccccc2c2c3c(c(-c4ccccc4Cl)cc21)C(=O)NC3O (stereo unspecified)
89 | 208 to 209 °C | CC1Oc2ccc(Br)c(C=NO)c2O1 (stereo unspecified)
90 | 219 to 221 °C | CCCC(=O)N(NC(N)=S)c1ccccc1
91 | 167 °C | Cc1cc(-c2ccc(C(F)(F)F)cc2)cc(-c2ccnc(-c3cccc(N)c3)n2)n1
92 | 165 to 169 °C | Cc1ccc([N+](=O)[O-])c(C(O)=S)c1
93 | 94 to 95 °C | Cc1ccc(Sc2cncc3sccc23)cc1
94 | 70 °C | CCOC(=O)CCC(=O)c1ccc(Cl)cc1OCC(O)CNC(C)(C)C (stereo unspecified)
95 | 190 to 191 °C | CCC(CC)(CC(=O)Nc1ccc2ccc(OCc3ccc4ccccc4n3)cc2c1)C(=O)O
96 | 253 to 256 °C | O=C(O)C(=O)Nc1ccc2c(=O)c3c(oc2c1)C(=Cc1ccccc1)CC3
97 | 119 to 121 °C | CSCC(=O)[C@H](Cc1ccc(Cl)cc1)NC(=O)[C@H](CC(C)C)NC(=O)OCc1ccccc1
98 | 150 to 152 °C | Cc1ccc2cccc(OCc3c(C)ccc([N+](=O)[O-])c3C)c2n1
99 | 265 to 266 °C | CCOC(=O)c1cc(Nc2cccc(Cl)c2Cl)c(C(=O)OCC)cc1Nc1cccc(Cl)c1Cl
100 | 214 to 216 °C | O=C1NC(=O)c2c1c(-c1ccccc1)cc1c2c2cc(O)ccc2n1CCCCCCBr
101 | 170 to 172 °C | COC(=O)C1=CCC(=NON)C=C1
